Experimental data published in patent US4985547A, “External skin care preparation” (Kao Corporation, priority 1987, dated 1991).

Tests used:
horny layer = assay: Skin conductance (water content of horny layer) after two-week coating on cheeks; type: in vivo, women; parameters: key: conductance meter reading; ≤5 = severe roughness, ≥20 = no roughness; conditions: Invention Product 1: vaseline and compound 3:1 by weight; two weeks; 20° C., 40% humidity; 5 and smaller = severe roughness, 20 or greater = no substantial roughness
Text: (§1) Compounds Ia1 -Ia18 prepared respectively in Referential Examples 1, 2 and 3 and following the procedures of these referential examples, compounds Ib1 -Ib5 prepared respectively in Referential Example 4 and following the procedure of the referential example, compounds Id1 -Id5 prepared respectively in Referential Example 5 and following the procedure of the referential example, compounds Ie1 -Ie4 prepared respectively in Referential Examples 6-9, and conventional compounds Ic1 -Ic13, Ie5 -Ie14 and II1 -II12 were used separately. Mixtures (Invention Products 1), each of which had been formulated by mixing vaseline and the compound (I or II) at a weight ratio of 3:1, and vaseline (Comparative Product 1) were evaluated in skin conductance and skin roughness by the following methods.
(§2) Chosen as volunteers in winter were 10 women of 20-50 years of old who had skin roughness on their both cheeks. Different external skin care preparations were coated separately on the left and right cheeks of each volunteer for two weeks. On the following day of the completion of the two-week coating test, tests were conducted with respect to the following properties.
After washing the face with warm water of 37° C., each volunteer was allowed to rest for 20 minutes in a room which was air-conditioned at 20° C. and 40% humidity. The water content of their horny layer was measured by a skin conductance meter (manufactured by IBS Company). A smaller conductance value indicates greater skin roughness. Conductance values of 5 and smaller indicate severe skin roughness. On the contrary, no substantial skin roughness is observed where this value is 20 or greater.

skin roughness = assay: Score of skin roughness, visual ranking after two-week coating on cheeks; type: in vivo, women; conditions: compound 1.0 wt. %, average, 0 = none, 4 = severe
Text: as §1, §2
Skin roughness was observed visually and ranked in accordance with the following standard. Each score was indicated by an average value.
Score Ranking of skin roughness
0 No skin roughness was observed.
1 Slight skin roughness was observed.
2 Skin roughness was observed.
3 Rather severe skin roughness was observed.
4 Severe skin roughness was observed.
Using separately the compounds used in Example 1, external skin care preparations (emulsified cosmetic preparations) of their corresponding compositions shown below in Table 2 were formulated. Their effects for the improvement of skin roughness were evaluated in the same manner as in Example 1.

[1] = Invention product 2: emulsified cosmetic, glyceryl ether 2.0 wt. %
[2] = Invention product 3: emulsified cosmetic, arginine monocetylphosphate 2.0 wt. %
[3] = Invention product 4: emulsified cosmetic, polyoxyethylene (20) sorbitan stearate 1.0 and sorbitan monostearate 1.0 wt. %

SMILES | Skin conductance (horny layer) | Score of skin roughness (skin roughness; [1]) | Score of skin roughness (skin roughness; [2]) | Score of skin roughness (skin roughness; [3])
CCCCCCCCCCCCCCCCCCOCC(O)CN(CC(O)CO)C(=O)CCCCCCCCC (stereo not shown) [Compound Ia12] | 18 | 0.3 | 0.5 | 0.9
CCCCCCCCCCOCC(O)CN(CCO)CC(O)COCCCCCCCCCC (stereo not shown) [Compound II2] | 8 | 0.8 | 1.0 | 1.2
CCCCCCCCCCCCCCCCOCC(O)CN(CCOC1O[C@H](CO)[C@@H](O)[C@H](O)[C@H]1O)C(=O)CCCCCCCCCCCCCCC (stereo partly shown) [Compound Ie1, N-(3-hexadecyloxy-2-hydroxypropyl)-N-(2-O-glucopyranosyl)ethylhexadecanamide] | 25 | 0.4 | 0.6 | 0.9
CCCCCCCCCCCCCCCCCCOCC(O)CN(CCO)CC(O)COCCCCCCCCCCCCCCCCCC (stereo not shown) [Compound II4] | 21 | 0.1 | 0.3 | 0.7
CCCCCCCCCCCCCCCCOCC(CN(CCOP(=O)([O-])OCC[N+](C)(C)C)C(=O)CCCCCCCCCCCCCCC)OP(=O)([O-])OCC[N+](C)(C)C (stereo not shown) [Compound Ie14] | 10 | 1.2 | 1.4 | 1.9
CCCCCCCCCCCCCCCCOCC(O)CN(CCOP(=O)(O)OCCNCc1ccccc1)C(=O)CCCCCCCCCCCCCCC (stereo not shown) [Compound Ie8] | 15 | 0.6 | 1.1 | 1.3
CCCCCCCCCCCCCCCCCCOCC(O)CN(C(=O)CCCCCCCCCCCCCCCCC)C(C)CO (stereo not shown) [Compound Ia16] | 15 | 0.4 | 0.6 | 0.9
CCCCCCCCCCCCCCCCCCOCC(O)CN(CCCO)C(=O)CCCCCCCCC (stereo not shown) [Compound Ia5] | 17 | 0.3 | 0.5 | 1.0
CCCCCCCCCCCCCCCCCCOCC(O)CN(CCCO)C(=O)CCCCCCCCCCCCCCCCC (stereo not shown) [Compound Ia6] | 23 | 0.1 | 0.3 | 0.7
CCCCCCCCCCCCCCCCOCC(O)CN(C(=O)CCCCCCCCCCCCCCC)C(CO)C(=O)O (stereo not shown) [Compound Ic8] | 18 | 0.4 | 0.6 | 0.9
